Read-outs that look alike come from different tables or passages of the source.
What was measured:
[1] = molecular target: M. burtonii mevalonate kinase (Methanococcoides burtonii, UniProt Q12TI0); experiment: Mevalonate kinase coupled spectrophotometric kinetic and inhibition assay; format: biochemical; conditions: for kcat: 40 nM purified enzyme, varying mevalonate and ATP
[2] = molecular target: M. mazei mevalonate kinase (Methanosarcina mazei, UniProt Q8PW39); experiment: as above; format: biochemical; conditions: for Vmax / α / kcat / Ka/b: random bireactant system model; for kcat: 80 nM purified enzyme, varying mevalonate and ATP; for Ka/b: Ka(Mev), Kb(ATP)
Chain of M. mazei mevalonate kinase (Q8PW39 entry or part of it): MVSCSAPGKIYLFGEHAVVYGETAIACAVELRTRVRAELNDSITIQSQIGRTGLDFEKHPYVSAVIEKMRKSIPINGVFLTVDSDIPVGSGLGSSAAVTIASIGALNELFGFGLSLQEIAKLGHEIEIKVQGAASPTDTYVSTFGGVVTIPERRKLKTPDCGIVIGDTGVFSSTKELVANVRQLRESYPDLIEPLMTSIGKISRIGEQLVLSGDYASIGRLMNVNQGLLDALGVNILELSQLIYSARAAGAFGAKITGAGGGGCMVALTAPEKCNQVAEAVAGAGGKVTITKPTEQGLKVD

[3] = tested on: engineered E. coli strains; format: cell-based
[4] = inhibitor added at various concentrations to the reaction mix, read-out: Ki

Chain of M. burtonii mevalonate kinase (Q12TI0 entry or part of it): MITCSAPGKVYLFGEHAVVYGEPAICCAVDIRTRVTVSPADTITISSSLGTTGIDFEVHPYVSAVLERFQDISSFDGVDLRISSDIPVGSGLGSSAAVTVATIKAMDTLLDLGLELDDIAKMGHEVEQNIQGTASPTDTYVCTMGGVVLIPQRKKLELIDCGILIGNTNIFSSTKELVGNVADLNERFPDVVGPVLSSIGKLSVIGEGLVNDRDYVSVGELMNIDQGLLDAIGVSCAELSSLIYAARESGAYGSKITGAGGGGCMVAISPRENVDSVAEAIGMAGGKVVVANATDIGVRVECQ

Nc1ncnc2c1ncn2[C@@H]1O[C@H](COP(=O)(O)OP(=O)(O)OP(=O)(O)O)[C@@H](O)[C@H]1O [ATP, Adenosine triphosphate]
Ka/b [1]: 212 µM | Vmax ([1]; random bireactant system model): 2.97 µM/s | α ([1]; random bireactant system model): 3.74 | kcat ([1]; random bireactant system model): 74.3 s⁻¹ | Vmax [2]: 2.14 µM/s | α [2]: 1.62 | kcat [2]: 26.8 s⁻¹ | Ka/b [2]: 460 µM

CC(C)=CCOP(=O)(O)OP(=O)(O)O [DMAPP, dimethylallyl diphosphate, reference compound]
Ki [1]: > 5 mM | Ki [2]: > 5 mM

CC(C)=CCC/C(C)=C/COP(=O)(O)OP(=O)(O)O [GPP, geranyl pyrophosphate, reference compound]
Ki [1, 4]: > 5 mM | Ki [2, 4]: > 5 mM

C=C(C)CCO[P@@](=O)(O)OP(=O)(O)O [IPP, isopentenyl pyrophosphate, reference compound]
Ki [1]: > 5 mM | Ki [2]: > 5 mM

CC(O)(CCOP(=O)(O)O)CC(=O)O (stereo not shown) [MVP, reference compound]
Ki [1, 4]: > 3 mM | Ki [2, 4]: > 3 mM

C[C@@](O)(CCOP(=O)(O)OP(=O)(O)O)CC(=O)O [MVPP, reference compound]
Ki [1, 4]: > 5 mM | Ki [2, 4]: > 1 mM

CC(O)(CCO)CC(=O)O (stereo not shown) [Mevalonate, mevalonate]
growth inhibition by mevalonate ([3]; strain MCM2131, mevalonate between 0 and 16 mM): not inhibited | growth inhibition by mevalonate ([3]; strains MCM2125, MCM2127 and MCM2130, mevalonate 0-16 mM): not inhibited | Vmax ([1]; random bireactant system model): 1.78 µM/s | α ([1]; random bireactant system model): 0.52 | kcat ([1]; random bireactant system model): 44.4 s⁻¹ | Ka/b ([1]; random bireactant system model, Ka(Mev), Kb(ATP)): 391 µM | Vmax [2]: 1.46 µM/s | α [2]: 0.23 | kcat [2]: 18.3 s⁻¹ | Ka/b [2]: 397 µM
